Experimental data as given in patent US12600696B2 (XENIOPRO GMBH, priority 2017, dated 2026).

System: Notch signaling (hNotch1ΔE, human Notch1 receptor) in HeLa cells
Assay: Notch reporter assay (luciferase luminescence readout in transfected HeLa cells)
Type: cell-based
Settings: Homo sapiens, 20 hours, relative to DMSO baseline level of 1.0, read-out: AVEw, weighted arithmetic mean of double-normalized Notch-reporter luciferase luminescence values (Activity Range)
How it was run: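 HeLa cells were transiently transfected for 24 h with membrane-tethered constitutively active hNotch1ΔE, a CSL-promoter Firefly luciferase reporter and constitutive SV40-Renilla luciferase. Compounds were then applied at 10 μM (0.1% DMSO) for 20 h. Firefly/Renilla dual-luciferase ratios were normalized to DMSO control (baseline 1.0), outliers were excluded, and replicate values were averaged across ≥3 independent experiments.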

NC(=O)c1ccc(Oc2ccc(C3CC4CCC3C4)cc2)cc1 (racemic) [Compound 159, (±)-4-(4-(Bicyclo[2.2.1]heptan-2-yl)phenoxy)benzamide]
fold induction at 10 µM: 1.1 to 1.2

CCCc1ccc(Oc2ccc(C(=O)NO)cc2)cc1 [Compound 166, N-hydroxy-4-(4-propylphenoxy)benzamide]
fold induction at 10 µM: 1.2 to 1.3

CCC(C)(C)c1ccc(Oc2ccc(C(=O)NO)cc2)cc1 [Compound 171, N-hydroxy-4-(4-(tert-pentyl)phenoxy)benzamide]
fold induction at 10 µM: 1.1 to 1.2

O=C(NO)c1ccc(Oc2ccc(C3CCCCC3)cc2)cc1 [Compound 182, 4-(4-cyclohexylphenoxy)-N-hydroxybenzamide]
fold induction at 10 µM: 1.3 to 1.4

O=C(NO)c1ccc(Oc2ccc(C34CC5CC(CC(C5)C3)C4)cc2)cc1 [Compound 186, 4-(4-(Adamantan-1-yl)phenoxy)-N-hydroxybenzamide]
fold induction at 10 µM: ≥ 2

CC(C)c1ccc(Oc2ccc(C(=O)NO)cn2)cc1 [Compound 272, N-hydroxy-6-(4-isopropylphenoxy)nicotinamide]
fold induction at 10 µM: 1.7 to 2

CCC(C)(C)c1ccc(Oc2ccc(C(=O)NO)cn2)cc1 [Compound 273, N-hydroxy-6-(4-(tert-pentyl)phenoxy)nicotinamide]
fold induction at 10 µM: 1.2 to 1.3

O=C(NO)c1ccc(Oc2ccc(C3CCCCC3)cc2)nc1 [Compound 284, 6-(4-Cyclohexylphenoxy)-N-hydroxynicotinamide]
fold induction at 10 µM: 1.7 to 2

O=C(NO)c1ccc(Oc2ccc(C3CC4CCC3CC4)cc2)nc1 (stereo not drawn) [Compound 287, 6-(4-((1s,4s)-bicyclo[2.2.2]octan-2-yl)phenoxy)-N-hydroxynicotinamide]
fold induction at 10 µM: 1.1 to 1.2

O=C(NO)c1ccc(Oc2ccc(C34CC5CC(CC(C5)C3)C4)cc2)nc1 [Compound 288, 6-(4-((3r,5r,7r)-adamantan-1-yl)phenoxy)-N-hydroxynicotinamide]
fold induction at 10 µM: 1.7 to 2

CNC(=O)c1ccc(Oc2ccc(C(F)(F)F)cc2)nc1 [Compound 300, N-methyl-6-(4-(trifluoromethyl)phenoxy)nicotinamide]
fold induction at 10 µM: 1.1 to 1.2

CN(C)C(=O)c1ccc(Oc2ccc(C3CCCCC3)cc2)nc1 [Compound 334, 6-(4-cyclohexylphenoxy)-N,N-dimethylnicotinamide]
fold induction at 10 µM: 1.3 to 1.4

O=C(NO)c1ccc(Oc2ccc(C34CC5CC(CC(C5)C3)C4)cc2)c(F)c1 [Compound 544, 4-(4-(Adamantan-1-yl)phenoxy)-3-fluoro-N-hydroxybenzamide]
fold induction at 10 µM: 1.4 to 1.7

O=C(NO)c1cnc(Oc2ccc(C3CCCCC3)cc2)c(F)c1 [Compound 644, 6-(4-Cyclohexylphenoxy)-5-fluoro-N-hydroxynicotinamide]
fold induction at 10 µM: 1.1 to 1.2

Oc1ccc(C=Cc2cc(O)cc(O)c2)cc1 [RES, resveratrol, reference compound]
fold induction at 10 µM: 1.5
